Results taken from ChEMBL document CHEMBL4406795, “An overview on the synthetic and medicinal perspectives of indenopyrazoles” (Eur J Med Chem, 2019).
In brackets after ≈: the same amount, converted by molar mass.

Experiments:
[1] = biological target: Cyclin-dependent kinase 2 (Homo sapiens, UniProt P24941); assay: Inhibition of CDK2 (unknown origin)
Bacillus subtilis [2] = assay: Antibacterial activity against Bacillus subtilis MTCC 441 after 48 hrs by serial tube dilution method; assay type: functional; settings: MTCC 441, 48 h
Pseudomonas aeruginosa = assay: Antibacterial activity against Pseudomonas aeruginosa MTCC 741 after 48 hrs by serial tube dilution method; assay type: functional; settings: MTCC 741, 48 h
Staphylococcus aureus [3] = assay: Antibacterial activity against Staphylococcus aureus MTCC 7443 after 48 hrs by serial tube dilution method; assay type: functional; settings: MTCC 7443, 48 h
Escherichia coli [4] = assay: Antibacterial activity against Escherichia coli MTCC 42 after 48 hrs by serial tube dilution method; assay type: functional; settings: for MIC: Escherichia coli, MTCC 42, 48 h
Candida albicans [5] = assay: Antifungal activity against Candida albicans MTCC 183 after 120 hrs by serial tube dilution method; assay type: functional; settings: MTCC 183, 120 h
Aspergillus niger [6] = assay: Antifungal activity against Aspergillus niger MTCC 282 after 120 hrs by serial tube dilution method; assay type: functional; settings: MTCC 282, 120 h
Candida albicans [7] = assay: Antifungal activity against Candida albicans MTCC 183 assessed as zone of inhibition; assay type: functional
Aspergillus niger [8] = assay: Antifungal activity against Aspergillus niger MTCC 282 assessed as zone of inhibition; assay type: functional
Staphylococcus aureus [9] = assay: Antibacterial activity against Staphylococcus aureus MTCC 7443 assessed as zone of inhibition; assay type: functional
Bacillus subtilis [10] = assay: Antibacterial activity against Bacillus subtilis MTCC 441 assessed as zone of inhibition; assay type: functional
Escherichia coli [11] = assay: Antibacterial activity against Escherichia coli MTCC 42 assessed as zone of inhibition; assay type: functional

## COc1ccc(-c2[nH]nc3c2C(=O)c2c(NC(=O)CN4CCN(C(=N)N)CC4)cccc2-3)cc1
[1]
  IC50: 13 nM

## NC(=O)Nc1cccc2c1C(=O)c1c-2n[nH]c1-c1csc(Cl)c1
[1]
  IC50: 46 nM

## COc1cc2c(cc1OC)C1=NN(C(N)=S)C(c3ccc(F)cc3)C1C2 (stereo unspecified)
Bacillus subtilis [2]
  MIC: 4 µg/mL (≈ 10.8 µM)
Pseudomonas aeruginosa
  MIC: 4 µg/mL (≈ 10.8 µM)
Staphylococcus aureus [3]
  MIC: 4 µg/mL (≈ 10.8 µM)
Escherichia coli [4]
  MIC: 4 µg/mL (≈ 10.8 µM)

## COc1ccc(C2C3Cc4cc(OC)c(OC)cc4C3=NN2C(N)=O)cc1 (stereo unspecified)
Candida albicans [5]
  MIC: 2 to 4 µg/mL (≈ 5.44 to 10.9 µM)
Aspergillus niger [6]
  MIC: 2 to 4 µg/mL

## O=C(Nc1cccc2c1C(=O)c1c-2n[nH]c1-c1ccc(C(=O)N2CCNCC2)s1)NN1CCOCC1
[1]
  IC50: 8 nM

## CCc1nn(-c2nc(-c3ccc(Cl)cc3)cs2)c2c1Cc1ccccc1-2
Escherichia coli [4]
  -logMIC: 1.78

## Clc1ccc(-c2c3c(nn2-c2ccccc2)-c2ccccc2C3)cc1
Candida albicans [7]
  inhibition zone (IZ): 16 mm
Candida albicans [5]
  MIC: 50 µg/mL (≈ 146 µM)
Aspergillus niger [6]
  MIC: 50 µg/mL
Aspergillus niger [8]
  inhibition zone (IZ): 16 mm

## Cc1nn(-c2nc(-c3ccc(Cl)cc3)cs2)c2c1C(=O)c1ccccc1-2
Escherichia coli [4]
  -logMIC: 1.479

## O=[N+]([O-])c1ccc(-c2nn(-c3ccccc3)cc2-c2c3c(nn2-c2ccccc2)-c2ccccc2C3)cc1
Bacillus subtilis [2]
  MIC: 50 µg/mL (≈ 101 µM)
Candida albicans [7]
  inhibition zone (IZ): 18 mm
Staphylococcus aureus [9]
  inhibition zone (IZ): 20 mm
Candida albicans [5]
  MIC: 50 µg/mL (≈ 101 µM)
Aspergillus niger [6]
  MIC: 50 µg/mL
Bacillus subtilis [10]
  inhibition zone (IZ): 20 mm
Staphylococcus aureus [3]
  MIC: 50 µg/mL (≈ 101 µM)
Aspergillus niger [8]
  inhibition zone (IZ): 18 mm
Escherichia coli [11]
  inhibition zone (IZ): 20 mm
Escherichia coli [4]
  MIC: 50 µg/mL (≈ 101 µM)

## COc1ccc(-c2n[nH]c3c2C(=O)c2c(C=O)cccc2-3)cc1
[1]
  IC50: 57 nM

## Cc1nn(-c2nc(-c3ccc(Cl)cc3)cs2)c2c1Cc1ccccc1-2
Escherichia coli [4]
  -logMIC: 1.764

## Clc1ccc(-c2nn(-c3ccccc3)cc2-c2c3c(nn2-c2ccccc2)-c2ccccc2C3)cc1
Bacillus subtilis [2]
  MIC: 50 µg/mL (≈ 103 µM)
Staphylococcus aureus [9]
  inhibition zone (IZ): 17 mm
Bacillus subtilis [10]
  inhibition zone (IZ): 17 mm
Staphylococcus aureus [3]
  MIC: 50 µg/mL (≈ 103 µM)
Escherichia coli [11]
  inhibition zone (IZ): 17 mm
Escherichia coli [4]
  MIC: 50 µg/mL (≈ 103 µM)

## CCc1nn(-c2nc(-c3ccc(Cl)cc3)cs2)c2c1C(=O)c1ccccc1-2
Escherichia coli [4]
  -logMIC: 2.098

## O=[N+]([O-])c1ccc(-c2c3c(nn2-c2ccccc2)-c2ccccc2C3)cc1
Bacillus subtilis [2]
  MIC: 50 µg/mL (≈ 141 µM)
Candida albicans [7]
  inhibition zone (IZ): 13 mm
Staphylococcus aureus [9]
  inhibition zone (IZ): 18 mm
Candida albicans [5]
  MIC: 50 µg/mL (≈ 141 µM)
Aspergillus niger [6]
  MIC: 50 µg/mL
Bacillus subtilis [10]
  inhibition zone (IZ): 18 mm
Staphylococcus aureus [3]
  MIC: 50 µg/mL (≈ 141 µM)
Aspergillus niger [8]
  inhibition zone (IZ): 13 mm
Escherichia coli [11]
  inhibition zone (IZ): 18 mm
Escherichia coli [4]
  MIC: 50 µg/mL (≈ 141 µM)

## Cc1ccc2nc(-n3nc(-c4ccc(Cl)cc4)c4c3-c3ccccc3C4=O)sc2c1
Aspergillus niger [6]
  MIC: 3.6 µM

## O=[N+]([O-])c1cccc(-c2c3c(nn2-c2ccccc2)-c2ccccc2C3)c1
Bacillus subtilis [2]
  MIC: 50 µg/mL (≈ 141 µM)
Candida albicans [7]
  inhibition zone (IZ): 15 mm
Staphylococcus aureus [9]
  inhibition zone (IZ): 17 mm
Candida albicans [5]
  MIC: 50 µg/mL (≈ 141 µM)
Aspergillus niger [6]
  MIC: 50 µg/mL
Bacillus subtilis [10]
  inhibition zone (IZ): 17 mm
Staphylococcus aureus [3]
  MIC: 50 µg/mL (≈ 141 µM)
Aspergillus niger [8]
  inhibition zone (IZ): 15 mm
Escherichia coli [11]
  inhibition zone (IZ): 17 mm
Escherichia coli [4]
  MIC: 50 µg/mL (≈ 141 µM)

## OC(Cn1cncn1)(Cn1cncn1)c1ccc(F)cc1F [FLUCONAZOLE]
Aspergillus niger [6]
  MIC: 5 µM
